Numbering of substitutions follows the chain as printed.

Common to all, as to assay type: cell-based
Assay [1] deals with T1, hM1 WT mAChR (M1 muscarinic acetylcholine receptor) (Homo sapiens, UniProt P11229).
T1 sequence (P11229 1-460): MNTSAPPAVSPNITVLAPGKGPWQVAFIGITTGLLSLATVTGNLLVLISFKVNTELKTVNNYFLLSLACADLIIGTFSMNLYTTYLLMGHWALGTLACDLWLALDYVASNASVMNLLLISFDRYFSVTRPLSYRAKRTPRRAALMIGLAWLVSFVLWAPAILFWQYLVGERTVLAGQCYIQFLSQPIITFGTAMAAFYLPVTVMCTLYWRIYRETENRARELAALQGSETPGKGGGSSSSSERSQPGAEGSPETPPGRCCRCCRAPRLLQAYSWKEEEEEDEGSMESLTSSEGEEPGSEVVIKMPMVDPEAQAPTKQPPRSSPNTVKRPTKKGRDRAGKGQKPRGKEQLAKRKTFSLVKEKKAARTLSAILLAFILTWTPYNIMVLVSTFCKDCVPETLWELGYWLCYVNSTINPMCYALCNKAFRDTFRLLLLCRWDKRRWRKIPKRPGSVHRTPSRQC
Nature of the assay: whole-cell [3H]NMS inhibition binding, allosteric ternary complex model.

Assay [2] concerns the target T1, hM1 WT mAChR (M1 muscarinic acetylcholine receptor). The experiment in a line: IP1 accumulation. The settings on record: for pEC50^b / IP1 / M1WT: […] h, […] °C, pH […].
The target in assay [3] is T2, hM1 WT mAChR (M1 muscarinic acetylcholine receptor) (Homo sapiens, UniProt P11229, A196G/Y106C).
T2 sequence (P11229 1-460 Y106C/A196G): T1 sequence (P11229 1-460) with Y106C, A196G
Nature of the assay: whole-cell [3H]NMS inhibition binding, allosteric ternary complex model.

For assay [4], the target named is T1, hM1 WT mAChR (M1 muscarinic acetylcholine receptor). Nature of the assay: cell-based.
Assay [5] has as its target T3, hM1 WT mAChR (M1 muscarinic acetylcholine receptor) (Homo sapiens, UniProt P11229, Y106C/A196G).
T3 sequence (P11229 1-460 Y106C/A196G): T1 sequence (P11229 1-460) with Y106C, A196G
The experiment in a line: cell-based.

In assay [6] the target is T2, hM1 WT mAChR (M1 muscarinic acetylcholine receptor). The experiment in a line: IP1 accumulation.
Assay [7] has the same target. Nature of the assay: cell-based.
The target of assay [8] is T3, hM1 WT mAChR (M1 muscarinic acetylcholine receptor). The experiment in a line: whole-cell [3H]NMS inhibition binding, allosteric ternary complex model. The settings on record: M1 DREADD, printed as Y3.[…] and A5.[…]; HBSS, […] HEPES pH […]; allosteric.

For `O=C(N[C@H]1CCCC[C@@H]1O)[C@H]1CN(Cc2ccc(-n3cccn3)cc2)c2ccccc2O1` [VU0486846, (2R)-N-[(1S,2S)-2-hydroxycyclohexyl]-4-[(4-pyrazol-1-ylphenyl)-methyl]-2,3-dihydro-1,4-benzoxazine-2-carboxamide], the Ki (commonly the equilibrium dissociation constant of an inhibitor or competing ligand from its target) in assay [1] was 0.794 µM; in assay [3], 25.1 µM. In addition, in assay [2], the half-maximal effective concentration (EC50) (commonly the midpoint of the concentration-response curve) is 0.372 µM.

In the case of `O=C1CCCN1CC#CCN1CCCC1` [oxotremorine], the “pKI^b (nH)^c / M1WT” value in assay [4] amounted to 6.0 ± 0.04. Moreover, the “pEC50^b / IP1 / M1WT” value in assay [2] (orthosteric agonist) is 7.68 ± 0.12. Further, the “pKI^b (nH)^c / M1DREADD” value in assay [5] was found to be 4.3 ± 0.05.

Turning to `C[N+]1([O-])CCN(C2=Nc3cc(Cl)ccc3Nc3ccccc32)CC1` [CNO], the Ki in assay [4] was 12.6 µM; in assay [7], 0.126 µM. The EC50 in assay [6] was 0.00537 µM.

Regarding `Cn1cc(-c2ccc(COc3ccccc3-c3cc(=O)n(C4CCCCC4O)cn3)cc2)cn1` (stereo not drawn) [MIPS1780, 3-(2-hydroxycyclohexyl)-6-(2-((4-(1-methyl-1H-pyrazol-4-yl)-benzyl)oxy)phenyl)-pyrimidin-4(3H)-one], the “pKI^b (nH)^c / M1WT” value in assay [1] (HBSS, […] HEPES pH […], allosteric) is 6.0 ± 0.10. For the same molecule, the “pEC50^b / IP1 / M1WT” value in assay [2] (allosteric agonist, no ACh added) amounted to 6.86 ± 0.19. Also, the “pKI^b (nH)^c / M1DREADD” value in assay [8] came out at 5.3 ± 0.09.

On to `Cc1cnc(C(=O)N[C@H]2CCOC[C@@H]2O)cc1Cc1ccc(-c2cscn2)cc1` [PF-06767832, N-((3R,4S)-3-hydroxytetrahydro-2H-pyran-4-yl)-5-methyl-4-(4-(thiazol-4-yl)benzyl)pyridine-2-carboxamide], for which the inhibition constant (Ki) in assay [1] was 0.501 µM; in assay [3], 5.01 µM. The molecule further had an EC50 in assay [2] of 0.0129 µM.

Values taken from article PMC7616161 (ACS chemical neuroscience, 2020).
